Measurements published in PubChem BioAssay AID248 (DTP/NCI, 2004).
Values joined by “and” are separate entries in the source; they are usually repeats but may differ in a detail not shown here. Equal values may be shown once. Toxic doses and inconclusive results are not listed.

System: L1210 leukemia ip in BDF1 mice, survival T/C
Assay: NCI In Vivo Anticancer Drug Screen. Data for tumor model L1210 Leukemia (intraperitoneal) in B6D2F1 (BDF1) mice
Conditions: endpoint: mean survival time, higher = longer survival
In short: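 Antitumor effect is assessed in tumor-bearing animals. Survival in the compound arm is compared with a vehicle-dosed control arm and expressed as their quotient.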

[1] = dose: 100.0 mg/kg/injection, schedule: Q04DX003 (ip), vehicle: acetone

O=C(Nc1ccc(C2=NCCN2)cc1)c1cccc(C(=O)Nc2ccc(C3=NCCN3)cc2)c1
T/C (dose: 1.0 mg/kg/injection, schedule: Q#A X Z (ip), vehicle: methylcellulose (MC)): 114 % of control
T/C (dose: 1.4 mg/kg/injection, schedule: Q01DX Z (ip), vehicle: methylcellulose (MC)): 104 % of control
T/C (dose: 1.88 mg/kg/injection, schedule: Q01DX Z (ip), vehicle: saline): 113 % of control
T/C (dose: 2.0 mg/kg/injection, schedule: Q01DX Z (ip), vehicle: methylcellulose (MC)): 117 % of control
T/C (dose: 2.5 mg/kg/injection, schedule: Q01DX Z (iv), vehicle: other): 94 % of control and 100 % of control
T/C (dose: 4.0 mg/kg/injection, schedule: Q#A X Z (ip), vehicle: methylcellulose (MC)): 158 % of control
T/C (dose: 5.0 mg/kg/injection, schedule: Q01DX Z (iv), vehicle: other): 94 % of control
T/C (dose: 6.0 mg/kg/injection, schedule: Q03DX Z (ip), vehicle: methylcellulose (MC)): 109 % of control
T/C (dose: 6.6 mg/kg/injection, schedule: Q01DX015 (ip), vehicle: carboxymethylcellulose (CMC)): 236 % of control
T/C (dose: 7.5 mg/kg/injection, schedule: Q01DX009 (ip), vehicle: saline): 171 % of control
T/C (dose: 7.5 mg/kg/injection, schedule: Q01DX Z (ip), vehicle: methylcellulose (MC)): 168 % of control
T/C (dose: 8.0 mg/kg/injection, schedule: Q01DX004 (im), vehicle: olive oil, sesame oil, peanut oil): 97 % of control
T/C (dose: 8.0 mg/kg/injection, schedule: Q01DX Z (ip), vehicle: methylcellulose (MC)): 164 % of control
T/C (dose: 8.0 mg/kg/injection, schedule: Q#A X Z (ip), vehicle: methylcellulose (MC)): 273 % of control
T/C (dose: 9.9 mg/kg/injection, schedule: Q01DX015 (ip), vehicle: carboxymethylcellulose (CMC)): 261 % of control
T/C (dose: 10.0 mg/kg/injection, schedule: Q01DX Z (iv), vehicle: other): 97 % of control and 100 % of control
T/C (dose: 15.0 mg/kg/injection, schedule: Q01DX009 (ip), vehicle: saline): 173 % of control and 206 % of control
T/C (dose: 15.0 mg/kg/injection, schedule: Q01DX015 (ip), vehicle: carboxymethylcellulose (CMC)): 309 % of control
T/C (dose: 15.0 mg/kg/injection, schedule: Q01DX Z (ip), vehicle: carboxymethylcellulose (CMC)): 212 % of control
T/C (dose: 15.0 mg/kg/injection, schedule: Q01DX Z (ip), vehicle: methylcellulose (MC)): 255 % of control and 369 % of control
T/C (dose: 15.0 mg/kg/injection, schedule: Q01DX Z (ip), vehicle: saline): 214 % of control and 264 % of control
T/C (dose: 16.0 mg/kg/injection, schedule: Q01DX004 (im), vehicle: olive oil, sesame oil, peanut oil): 100 % of control
T/C (dose: 16.0 mg/kg/injection, schedule: Q01DX010 (ip), vehicle: saline): 169 % of control
T/C (dose: 16.0 mg/kg/injection, schedule: Q01DX Z (ip), vehicle: methylcellulose (MC)): 331 % of control
T/C (dose: 16.0 mg/kg/injection, schedule: Q#A X Z (ip), vehicle: methylcellulose (MC)): 350 % of control
T/C (dose: 22.5 mg/kg/injection, schedule: Q01DX015 (ip), vehicle: carboxymethylcellulose (CMC)): 341 % of control
T/C (dose: 24.0 mg/kg/injection, schedule: Q03DX Z (ip), vehicle: methylcellulose (MC)): 167 % of control
T/C (dose: 30.0 mg/kg/injection, schedule: Q01DX009 (ip), vehicle: saline): 184 % of control and 240 % of control
T/C (dose: 30.0 mg/kg/injection, schedule: Q01DX Z (ip), vehicle: carboxymethylcellulose (CMC)): 367 % of control
T/C (dose: 30.0 mg/kg/injection, schedule: Q01DX Z (ip), vehicle: methylcellulose (MC)): 119 % of control and 329 % of control
T/C (dose: 30.0 mg/kg/injection, schedule: Q01DX Z (ip), vehicle: saline): 329 % of control
T/C (dose: 32.0 mg/kg/injection, schedule: Q01DX004 (im), vehicle: olive oil, sesame oil, peanut oil): 97 % of control
T/C (dose: 32.0 mg/kg/injection, schedule: Q01DX010 (ip), vehicle: saline): 241 % of control
T/C (dose: 32.0 mg/kg/injection, schedule: Q01DX Z (ip), vehicle: methylcellulose (MC)): 347 % of control
T/C (dose: 32.0 mg/kg/injection, schedule: Q01DX Z (sc), vehicle: methylcellulose (MC)): 205 % of control
T/C (dose: 32.0 mg/kg/injection, schedule: Q#A X Z (ip), vehicle: methylcellulose (MC)): 193 % of control
T/C (dose: 33.75 mg/kg/injection, schedule: Q01DX015 (ip), vehicle: carboxymethylcellulose (CMC)): 316 % of control
T/C (dose: 48.0 mg/kg/injection, schedule: Q03DX Z (ip), vehicle: methylcellulose (MC)): 267 % of control
T/C (dose: 56.0 mg/kg/injection, schedule: Q07DX Z (ip), vehicle: methylcellulose (MC)): 166 % of control
T/C (dose: 60.0 mg/kg/injection, schedule: Q01DX009 (ip), vehicle: saline): 194 % of control and 228 % of control
T/C (dose: 60.0 mg/kg/injection, schedule: Q01DX Z (ip), vehicle: carboxymethylcellulose (CMC)): 255 % of control
T/C (dose: 60.0 mg/kg/injection, schedule: Q01DX Z (ip), vehicle: methylcellulose (MC)): 106 % of control
T/C (dose: 60.0 mg/kg/injection, schedule: Q01DX Z (ip), vehicle: saline): 280 % of control
T/C (dose: 60.0 mg/kg/injection, schedule: Q01DX Z (oral), vehicle: methylcellulose (MC)): 114 % of control
T/C (dose: 64.0 mg/kg/injection, schedule: Q01DX004 (im), vehicle: olive oil, sesame oil, peanut oil): 114 % of control
T/C (dose: 64.0 mg/kg/injection, schedule: Q01DX010 (ip), vehicle: saline): 276 % of control
T/C (dose: 64.0 mg/kg/injection, schedule: Q01DX Z (sc), vehicle: methylcellulose (MC)): 317 % of control
T/C (dose: 96.0 mg/kg/injection, schedule: Q03DX Z (ip), vehicle: methylcellulose (MC)): 352 % of control
T/C (dose: 100.0 mg/kg/injection, schedule: Q01DX001 (ip), vehicle: water): 156 % of control
T/C (dose: 112.0 mg/kg/injection, schedule: Q07DX Z (ip), vehicle: methylcellulose (MC)): 243 % of control
T/C (dose: 120.0 mg/kg/injection, schedule: Q01DX009 (ip), vehicle: saline): 334 % of control
T/C (dose: 120.0 mg/kg/injection, schedule: Q01DX Z (ip), vehicle: methylcellulose (MC)): 89 % of control
T/C (dose: 120.0 mg/kg/injection, schedule: Q01DX Z (ip), vehicle: saline): 211 % of control
T/C (dose: 120.0 mg/kg/injection, schedule: Q01DX Z (oral), vehicle: methylcellulose (MC)): 91 % of control
T/C (dose: 128.0 mg/kg/injection, schedule: Q01DX Z (sc), vehicle: methylcellulose (MC)): 338 % of control
T/C (dose: 192.0 mg/kg/injection, schedule: Q03DX Z (ip), vehicle: methylcellulose (MC)): 189 % of control
T/C (dose: 200.0 mg/kg/injection, schedule: Q01DX001 (ip), vehicle: water): 194 % of control
T/C (dose: 240.0 mg/kg/injection, schedule: Q01DX Z (oral), vehicle: methylcellulose (MC)): 97 % of control
T/C (dose: 256.0 mg/kg/injection, schedule: Q01DX Z (sc), vehicle: methylcellulose (MC)): 341 % of control
T/C (dose: 300.0 mg/kg/injection, schedule: Q01DX001 (ip), vehicle: water): 247 % of control
T/C (dose: 480.0 mg/kg/injection, schedule: Q01DX Z (oral), vehicle: methylcellulose (MC)): 89 % of control

CCN(CC)CC(=O)N1Cc2ccccc2Cc2ccccc2C1
T/C (dose: 25.0 mg/kg/injection, schedule: Q04DX003 (ip), vehicle: Klucel (hydroxypropylcellulose) (HPC)): 92 % of control
T/C (dose: 50.0 mg/kg/injection, schedule: Q04DX003 (ip), vehicle: Klucel (hydroxypropylcellulose) (HPC)): 100 % of control
T/C (dose: 100.0 mg/kg/injection, schedule: Q04DX003 (ip), vehicle: Klucel (hydroxypropylcellulose) (HPC)): 107 % of control

Cc1nc2[nH]c(=O)[nH]c(=O)c2[nH]1
T/C (dose: 100.0 mg/kg/injection, schedule: Q04DX003 (ip), vehicle: saline with Tween-80): 91 % of control
T/C (dose: 200.0 mg/kg/injection, schedule: Q04DX003 (ip), vehicle: saline with Tween-80): 101 % of control
T/C (dose: 400.0 mg/kg/injection, schedule: Q04DX003 (ip), vehicle: saline with Tween-80): 90 % of control

Cc1ccc(N=Nc2ccc(C)cc2NC(=O)/C=C/c2ccccc2)cc1
T/C (dose: 50.0 mg/kg/injection, schedule: Q01DX009 (ip), vehicle: saline with Tween-80): 96 % of control
T/C (dose: 100.0 mg/kg/injection, schedule: Q01DX009 (ip), vehicle: saline with Tween-80): 90 % of control
T/C (dose: 200.0 mg/kg/injection, schedule: Q01DX009 (ip), vehicle: saline with Tween-80): 86 % of control

Cc1ccc(C2CCCN2C)cc1 (stereo not given)
T/C (dose: 25.0 mg/kg/injection, schedule: Q04DX003 (ip), vehicle: acetone): 96 % of control
T/C (dose: 50.0 mg/kg/injection, schedule: Q04DX003 (ip), vehicle: acetone): 94 % of control
T/C (dose: 100.0 mg/kg/injection, schedule: Q01DX001 (ip), vehicle: acetone): 88 % of control
T/C [1]: 99 % of control

Nc1ccc(P(=O)(Nc2cccc(Cl)c2)Nc2cccc(Cl)c2)cc1
T/C [1]: 108 % of control
T/C (dose: 200.0 mg/kg/injection, schedule: Q04DX003 (ip), vehicle: acetone): 92 % of control
T/C (dose: 400.0 mg/kg/injection, schedule: Q04DX003 (ip), vehicle: acetone): 92 % of control

CCNCCCNc1ccnc2cc(Cl)ccc12
T/C (dose: 10.0 mg/kg/injection, schedule: Q01DX001 (ip), vehicle: saline): 96 % of control
T/C (dose: 20.0 mg/kg/injection, schedule: Q01DX001 (ip), vehicle: saline): 98 % of control
T/C (dose: 40.0 mg/kg/injection, schedule: Q01DX001 (ip), vehicle: saline): 93 % of control
